Test results published in US20240415858A1, “PROMOTING MYELINATION BY N-ACETYLGLUCOSAMINE AND MODULATION OF N-GLYCAN BRANCHING” (THE REGENTS OF THE UNIVERSITY OF CALIFORNIA, priority 2021, published 2024).
“Also recorded” adds a separate entry of the source.

How the values were obtained:
[1] = mouse, in vivo, po
[2] = Phase 1 trial: serum HexNAc levels by LC-MS/MS; format: in vivo, human; conditions: 6 g and 12 g cohorts, after stopping oral GIcNAc
[3] = tested on: C57BL/6 mice with cuprizone induced demyelination; test: Cuprizone induced demyelination / re-myelination model (rotarod, immunofluorescence, electron microscopy); format: in vivo, mouse
Method: Cuprizone at 0.2% induces demyelination in the corpus callosum by 3 weeks, with maximum demyelination at 5-6 weeks. 8-week-old C57BL/6 mice purchased from Jackson Laboratories or 8-week old Mgat5^+/− C57BL/6 mice were treated with 0.2% Cuprizone (Sigma) mixed into milled rodent chow for 6 weeks for the active phase treatment and 5 weeks for the recovery treatment. During active phase treatment, GIcNAc (1 mg/mL) in drinking water or just drinking water (control) was provided for the last 3 weeks of Cuprizone treatment. For the recovery phase treatment, GIcNAc in drinking water or control was provided after Cuprizone treatment had been stopped. Mice were anesthetized and underwent cardiac perfusion with 4% paraformaldehyde in PBS or 4% paraformaldehyde plus 0.5% glutaraldehyde in Sodium cacodylate buffer for immunofluorescence or electron microscopic analysis respectively. Brains were then fixed overnight in perfusion solution
One day prior to Cuprizone treatment, mice were trained on the rotarod by allowing them to run three 5-minute trials at a constant 30 rotations per minute (RPM). Mice then underwent weekly testing during Cuprizone and GIcNAc treatment on an accelerating rotarod starting at 4 rpm increasing to 40 rpm over 5 minutes. Latency for mice to fall was recorded. If a mouse was not running on the rotarod by holding on for 3 turns, this was considered a fall. For the active phase treatment, one trial was run every week. For the recovery phase treatment, 3 trials were run for each mouse each week and latencies were averaged. As expected with Cuprizone treatment performance degraded as treatment progressed.
For neural stem cell (NSC) immunofluorescence, whole neurospheres were seeded onto laminin-coated coverslips (Neuvitro) in proliferation medium. After 24 hours, proliferation media was removed and replaced with differentiation medium (same components as proliferation medium but excluding EGF, bFGF, and heparin) to induce differentiation. For analysis of mouse brains, brains were incubated in 30% sucrose for at least 72 hours, embedded in OCT (Tissue-tek), frozen for at least 48 hours at −80° C., and then cut at 40 microns on a cryostat. Multiple sections from −1 bregma to −2.5 bregma were then stained with antibodies for MBP (1:100; MAB386, Millipore), Olig2 (1:200; AB9610, Millipore), CC1 (1:100; OP90, Millipore), degraded MBP (1:200, AB5864, Millipore) and Amyloid Precursor Protein (APP, 1:200; clone 22C11). After overnight incubation with primary antibody, tissues were washed and incubated with secondary antibodies: goat anti-rat Alexa-fluor 488 (1:200, Thermofisher), goat anti-rabbit TxRd (1:200, Thermofisher). APP is a marker for neuro-axonal damage while co-staining for CC1 and Olig2 are markers of mature oligodendrocytes. In order to examine the amount of myelin, slices were incubated in Fluoromyelin (1:300; F34651, Thermofisher) for 45 minutes. Images were acquired on a Keyence fluorescence microscope. Mean fluorescence intensity of the medial corpus callosum was measured using ImageJ.
Three mice from each treatment group (control and GIcNAc) were selected randomly for EM analysis (before other investigations were performed). Portions of these brains from 0 to −1 bregma were rinsed in 0.1 M cacodylate buffer overnight and again for 15 min. the next day. 2×1 mm blocks of the corpus callosum were dissected out and post-fixed with 1% osmium tetroxide in 0.1 M cacodylate buffer for 1 hour, rinsed in ddH20, dehydrated in increasing serial dilutions of ethanol (70%, 85%, 95%, 100%×2) for 10 min each, put in propylene oxide (intermediate solvent) for 2×10 min, incubated in propylene oxide/Spurr's resin (1:1 mix) for 1 h, and then in Spurr's resin overnight. The blocks were put in a fresh change of resin in flat embedding molds the next day and polymerized overnight at 60° C. The blocks were sectioned at 1 μm using a Leica Ultracut UCT ultramicrotome. […]

[4] = tested on: MS patients; test: Phase 1 trial: serum neurofilament light chain (Nfl), single molecule array immunoassay; format: in vivo, human; conditions: subjects with elevated baseline Nfl from all three dose groups, week 3 and 4 of treatment, p=0.0045, n=18
Method: Comparison of the change in serum Nfl concentration in subjects with elevated baseline levels (combined from the 3 g, 6 g, and 12 g cohorts) showing change from pre-GIcNAc to during weeks 3-4 of GIcNAc treatment. The four data points pre-GIcNAc (black dots) and the two data points from week 3 and 4 during GIcNAc treatment are averaged, normalized to pre-GIcNAc levels and shown as black and red dots connected by black lines for each subject, respectively. Nfl was measured by an ultra sensitive single molecule array immunoassay. P-value by 1-tailed Wilcoxon matched-pairs signed rank test.
Neurons exclusively express Nfl and release it when damaged, with high serum Nfl levels (>˜40 pg/ml) serving as a robust biomarker for ongoing neuro-axonal damage in MS. This analysis was done blinded by Jens Kuhle (University of Basel), who has published extensively on Nfl in MS.

[5] = tested on: blasting/activated CD25+CD4+ T cells; test: Phase 1 trial: N-glycan branching in T cells by L-PHA flow cytometry; format: in vivo, human; conditions: for average increase of L-PHA binding in blasting/activated CD25+CD4+ T cells: oral
Method: Based on its immunomodulatory effects, a FDA approved (IND 122235) dose escalation was carried out, open-label NIH funded Phase 1 mechanistic clinical trial of oral GIcNAc in MS patients (RRMS and PMS) on glatiramer acetate and not in acute relapse, with the primary endpoint an increase in N-glycan branching in T cells. This endpoint was used as a surrogate marker for GIcNAc's biological activity. Three doses were evaluated: 1 g TID (3 g total, n=13), 2 g TID (6 g total, n=18) and 4 g TID (12 g total, n=16). Subjects had baseline blood drawn weekly four times, then started on oral GIcNAc with 4 weekly blood draws (FIG. 8A).
To assess the primary endpoint (increased N-glycan branching in T cells), flow cytometry was used to assess binding of the plant lectin L-PHA (Phaseolus vulgaris leukoagglutinin) to T cells. L-PHA is a highly sensitive and specific measure of N-glycan branching. L-PHA binding was increased in blasting/activated CD25^+CD4^+ T cells in the 12 g (p=0.0065) and 6 g (p=0.037) but not the 3 g cohort, with average increases of 7%, 3% and 1.7% respectively (FIGS. 8H and 8I); the latter indicative of a dose response.

[6] = GIcNAc only after cuprizone stopped, wildtype 2 weeks, Mgat5+/- 1 or 4 weeks
[7] = Mgat5+/- mice, 4 weeks GIcNAc after 5 weeks cuprizone
[8] = wildtype mice, GIcNAc during final 3 weeks of 6-week cuprizone exposure

SMILES: CC(=O)N[C@H]1C(O)O[C@H](CO)[C@@H](O)[C@@H]1O (stereo partly shown) [GIcNAc, N-acetylglucosamine]
- crossing of the blood brain barrier [1]: able to cross the blood brain barrier
- secretion in breast milk [1]: secreted at sufficient levels in breast milk to raise UDP-GIcNAc in the brains of suckling pups
- serum HexNAc levels during the washout period [2]: rapidly declined back to baseline
- degraded MBP (dMBP)/myelin degeneration in the corpus callosum [3, 6]: reducing
- levels of MBP in the corpus callosum [3, 6]: enhanced
- levels of myelin (fluoromyelin) in the corpus callosum [3, 6]: enhanced
- mature oligodendrocytes (CC1 Olig2+) in the corpus callosum [3, 6]: enhanced
- axon loss (electron microscopy) [3, 7]: reducing
- degree of myelination (g-ratio, electron microscopy) [3, 7]: enhanced
- number of degenerating and dystrophic/swollen axons (electron microscopy) [3, 7]: reducing
- number of myelinated axons (electron microscopy) [3, 7]: enhanced
- number of paranodes (electron microscopy) [3, 7]: enhanced
- increase in fluoromyelin staining, 4 versus 1 week of GIcNAc treatment ([3]; Mgat5+/- mice, recovery phase): ~2 fold
- motor function (rotarod fall latency) ([3]; wildtype mice, GIcNAc during final 3 weeks of 6-week cuprizone (0.2%) exposure): prevented loss of motor function
- MBP levels in the corpus callosum [3, 8]: increasing
- axonal damage (accumulation of amyloid precursor protein, APP) in the corpus callosum [3, 8]: reducing
- serum Nfl levels [4]: significantly reduced; also recorded: reduces
- L-PHA binding in activated CD25+CD8+ T cells, resting CD25-CD4+ and CD25-CD8+ T cells and activated/resting CD19+ B cells ([5]; oral GIcNAc, data not shown): no increase
- average increase of L-PHA binding in blasting/activated CD25+CD4+ T cells ([5]; 3 g cohort (not significant)): 1.7%
- average increase of L-PHA binding in blasting/activated CD25+CD4+ T cells ([5]; 6 g cohort (p=0.037)): 3%
- average increase of L-PHA binding in blasting/activated CD25+CD4+ T cells ([5]; 12 g cohort (p=0.0065)): 7%
- L-PHA binding to blasting/activated CD25+CD4+ T cells during the washout period vs pre-GIcNAc or during GIcNAc ([5]; post-GIcNAc, 6 g and 12 g cohorts): no significant difference
